Assay results taken from US4272437A, “Antibacterial agents, and 4-thio azetidinone intermediates” (priority 1979, dated 1981).
In brackets after ≈: the same amount, converted by molar mass. Like-named read-outs stand apart in the source and are kept apart here.

Experiments:
[1] = test system: Pr. morganii A-15153; assay: MIC, tube dilution, Proteus morganii A15153; format: cell-based; conditions: Morganella morganii, A15153, Proteus morganii A15153; overnight 37° C.; read-out: Minimum Inhibitory Concentration (M.I.C.)
From the text: (§1) Representative compounds of the present invention were subjected to in vitro antibiotic screening against a variety of microorganisms.

[2] = test system: Staph. aureus A-9537 and 50% serum; assay: MIC, tube dilution, Staph. aureus A9537 + 50% serum; format: cell-based, Staphylococcus aureus; conditions: Staphylococcus aureus, overnight 37° C., read-out: Minimum Inhibitory Concentration (M.I.C.)
From the text: as §1

[3] = test system: Staph. aureus A-9537; assay: MIC, tube dilution, Staphylococcus aureus A9537; format: cell-based; conditions: Staphylococcus aureus, A9537, Staph. aureus A9537; overnight 37° C., Nutrient Broth; read-out: Minimum Inhibitory Concentration (M.I.C.)
From the text: as §1

[4] = test system: Ser. marcescens A-20019; assay: MIC, tube dilution, Serratia marcescens A20019; format: cell-based; conditions: Serratia marcescens, A20019, Serratia marcescens A20019; overnight 37° C.; read-out: Minimum Inhibitory Concentration (M.I.C.)
From the text: as §1

[5] = test system: E. coli A-15119; assay: MIC, tube dilution, Escherichia coli A15119; format: cell-based; conditions: Escherichia coli, A15119, E. coli A15119; overnight 37° C.; read-out: Minimum Inhibitory Concentration (M.I.C.)
From the text: as §1

[6] = test system: Str. faecalis A-20688; assay: MIC, tube dilution, Streptococcus faecalis A20688; format: cell-based; conditions: Enterococcus faecalis, A20688, Str. faecalis A20688; overnight 37° C.; read-out: Minimum Inhibitory Concentration (M.I.C.)
From the text: as §1

[7] = test system: Proteus rettgeri A21203; assay: MIC, tube dilution, Proteus rettgeri A21203; format: cell-based; conditions: Providencia rettgeri, overnight 37° C., read-out: Minimum Inhibitory Concentration (M.I.C.)
From the text: as §1

[8] = test system: K. pneumoniae A-15130; assay: MIC, tube dilution, Klebsiella pneumoniae A15130; format: cell-based; conditions: Klebsiella pneumoniae, A15130, K. pneumoniae A15130; overnight 37° C.; read-out: Minimum Inhibitory Concentration (M.I.C.)
From the text: as §1

[9] = test system: Str. pneumoniae A-9585; assay: MIC, tube dilution, Streptococcus pneumoniae A9585; format: cell-based; conditions: Streptococcus pneumoniae, A9585, Str. pneumoniae A9585; overnight 37° C., Nutrient Broth; read-out: Minimum Inhibitory Concentration (M.I.C.)
From the text: as §1

[10] = test system: E. coli A-20341-1; assay: MIC, tube dilution, Escherichia coli A20341-1; format: cell-based
From the text: as §1

[11] = test system: Ps. aeruginosa A-9843A; assay: MIC, tube dilution, Pseudomonas aeruginosa A9843A; format: cell-based; conditions: Pseudomonas aeruginosa, A9843A, read-out: Minimum Inhibitory Concentration (M.I.C.), Pseudomonas aeruginosa A9843A; overnight 37° C.
From the text: as §1

[12] = test system: Staph. aureus (Meth-Res) A-15097; assay: MIC, tube dilution, Staphylococcus aureus A15097 (Meth-Res); format: cell-based; conditions: Staphylococcus aureus, overnight 37° C.
From the text: as §1

[13] = test system: Klebsiella species A20468; assay: MIC, tube dilution, Klebsiella species A20468; format: cell-based; conditions: Klebsiella species (K. pneumoniae) A20468; overnight 37° C.; read-out: Minimum Inhibitory Concentration (M.I.C.)
From the text: as §1

[14] = test system: Hemophilus influenzae A9833; assay: MIC, tube dilution, Hemophilus influenzae A9833; format: cell-based; conditions: Haemophilus influenzae
From the text: as §1

[15] = test system: Staph. aureus (Pen-Res) A-9606; assay: MIC, tube dilution, Staphylococcus aureus A9606 (Pen-Res); format: cell-based; conditions: Staphylococcus aureus, Staph. aureus A9606 (Pen-Res); overnight 37° C.; read-out: Minimum Inhibitory Concentration (M.I.C.)
From the text: as §1

[16] = test system: Ent. cloacae A-9656; assay: MIC, tube dilution, Enterobacter cloacae A9656; format: cell-based; conditions: overnight 37° C., read-out: Minimum Inhibitory Concentration (M.I.C.)
From the text: as §1

[17] = test system: Ent. cloacae A-9659; assay: MIC, tube dilution, Enterobacter cloacae A9659; format: cell-based; conditions: Enterobacter cloacae, A9659, Enterobacter cloacae A9659; overnight 37° C.; read-out: Minimum Inhibitory Concentration (M.I.C.)
From the text: as §1

[18] = test system: Pr. mirabilis A-9900; assay: MIC, tube dilution, Proteus mirabilis A9900; format: cell-based; conditions: Proteus mirabilis, A9900, Proteus mirabilis A9900; overnight 37° C.; read-out: Minimum Inhibitory Concentration (M.I.C.)
From the text: as §1

[19] = test system: Ps. aeruginosa A-21213; assay: MIC, tube dilution, Pseudomonas aeruginosa A21213; format: cell-based; conditions: overnight 37° C., read-out: Minimum Inhibitory Concentration (M.I.C.)
From the text: as §1

[20] = test system: Str. pyogenes A-9604; assay: MIC, tube dilution, Streptococcus pyogenes A9604; format: cell-based; conditions: Streptococcus pyogenes, A9604, Str. pyogenes A9604; overnight 37° C., Nutrient Broth; read-out: Minimum Inhibitory Concentration (M.I.C.)
From the text: as §1

[21] = test system: β-lactamases; conditions: literature; cited from earlier work
[22] = test system: Proteus vulgaris A21559; assay: MIC, tube dilution, Proteus vulgaris A21559; format: cell-based; conditions: Proteus vulgaris, A21559, Proteus vulgaris A21559; overnight 37° C.; read-out: Minimum Inhibitory Concentration (M.I.C.)
From the text: as §1

[23] = stability of isolated product (light, handling); format: physicochemical
[24] = test system: S. aureus A9537; assay: In vivo protection of mice, lethal infection with S. aureus A9537; conditions: Staphylococcus aureus, A9537, im, IM, 2 treatments, 1 × 10^6 organisms; read-out: PD50
Protocol: Representative compounds of the present invention were also tested in vivo in mice and their PD50 (dose of compound in mg/kg required to protect 50% of the treated mice against an otherwise lethal infection of a micro-organism) values determined with respect to the test organisms shown below.

[25] = Mouse blood levels after intramuscular administration; format: in vivo; conditions: average of 6 mice, read-out: Mouse blood level
Protocol: Mouse blood levels after intramuscular administration of representative compounds of the present invention were determined and are reported in the table below.

[26] = A21203, Proteus rettgeri A21203
[27] = Escherichia coli, A203411, E. coli A20341-1; overnight 37° C.; read-out: Minimum Inhibitory Concentration (M.I.C.)
[28] = Staph. aureus A15097 (Meth-Res), read-out: Minimum Inhibitory Concentration (M.I.C.)
[29] = Hemophilus influenzae A9833, overnight 37° C., read-out: Minimum Inhibitory Concentration (M.I.C.)
[30] = Enterobacter cloacae, A9656, Enterobacter cloacae A9656
[31] = Pseudomonas aeruginosa, A21213, Pseudomonas aeruginosa A21213

| SMILES | MIC [1] | MIC [2] | MIC [3] | MIC [4] | MIC [5] | MIC [6] | MIC [7, 26] | MIC [8] | MIC [9] | MIC [10, 27] | MIC [11] | MIC [12, 28] | MIC [13] | MIC [14, 29] | MIC [15] | MIC [16, 30] | MIC [17] | MIC [18] | MIC [19, 31] | MIC [20] | other results |
| --- | --- | --- | --- | --- | --- | --- | --- | --- | --- | --- | --- | --- | --- | --- | --- | --- | --- | --- | --- | --- | --- |
| CC(=O)NCCC1=C(C(=O)O)N2C(=O)CC2S1 (stereo not drawn) [Example 25, Sodium 2-(2'-Acetamido-1'-ethyl)penem-3-carboxylate] | 4 µg/mL | 8 µg/mL | 0.5 µg/mL | 4 µg/mL | 4 µg/mL | 63 µg/mL | 8 µg/mL | 16 µg/mL | 0.25 µg/mL | 63 µg/mL | 16 µg/mL | 125 µg/mL | > 125 µg/mL | > 125 µg/mL | 1 µg/mL | 8 µg/mL | 4 µg/mL | 4 µg/mL | > 125 µg/mL | 0.25 µg/mL | – |
| O=C(O)C1=C(CCCNO)SC2CC(=O)N12 (stereo not drawn) [Example 26] | 1 µg/mL (≈ 4.09 µM) | 4 µg/mL | 0.13 µg/mL (≈ 0.532 µM) | 1 µg/mL (≈ 4.09 µM) | 0.5 µg/mL (≈ 2.05 µM) | 63 µg/mL (≈ 258 µM) | 2 µg/mL (≈ 8.19 µM) | 8 µg/mL (≈ 32.8 µM) | 0.016 µg/mL (≈ 0.0655 µM) | 63 µg/mL (≈ 258 µM) | 1 µg/mL (≈ 4.09 µM) | 125 µg/mL (≈ 512 µM) | > 125 µg/mL | 125 µg/mL (≈ 512 µM) | 8 µg/mL (≈ 32.8 µM) | 1 µg/mL (≈ 4.09 µM) | 2 µg/mL (≈ 8.19 µM) | 1 µg/mL (≈ 4.09 µM) | 125 µg/mL (≈ 512 µM) | 0.06 µg/mL (≈ 0.246 µM) | – |
| O=C(O)C1=CSC2CC(=O)N12 (stereo not drawn) [drawing 10] | – | – | – | – | – | – | – | – | – | – | – | – | – | – | – | – | – | – | – | – | β-lactamase inhibition [21]: no β-lactamase inhibitory activity |
| NC1CC1C1=C(C(=O)O)N2C(=O)CC2S1 (stereo not drawn) [Example 99, 2-(trans-2-Aminocyclopropyl)-penem-3-carboxylic Acid] | 16 µg/mL (≈ 70.7 µM) | 16 µg/mL | 1 µg/mL (≈ 4.42 µM) | 16 µg/mL (≈ 70.7 µM) | 8 µg/mL (≈ 35.4 µM) | 63 µg/mL (≈ 278 µM) | 8 µg/mL (≈ 35.4 µM) | 32 µg/mL (≈ 141 µM) | 1 µg/mL (≈ 4.42 µM) | 63 µg/mL (≈ 278 µM) | > 63 µg/mL | 32 µg/mL (≈ 141 µM) | > 63 µg/mL | – | 4 µg/mL (≈ 17.7 µM) | 16 µg/mL (≈ 70.7 µM) | 16 µg/mL (≈ 70.7 µM) | 8 µg/mL (≈ 35.4 µM) | > 63 µg/mL | 1 µg/mL (≈ 4.42 µM) | MIC [22]: 16 µg/mL (≈ 70.7 µM); stability [23]: suspected to be very light sensitive |
| NCCC1=C(C(=O)O)N2C(=O)CC2S1 (stereo not drawn) [Example 24, 2-Aminoethylpenem-3-carboxylic Acid] | 125 µg/mL (≈ 583 µM) | 16 µg/mL | 4 µg/mL (≈ 18.7 µM) | 63 µg/mL (≈ 294 µM) | 32 µg/mL (≈ 149 µM) | 63 µg/mL (≈ 294 µM) | – | > 125 µg/mL | 2 µg/mL (≈ 9.34 µM) | – | 125 µg/mL (≈ 583 µM) | – | 125 µg/mL (≈ 583 µM) | – | 8 µg/mL (≈ 37.3 µM) | – | 63 µg/mL (≈ 294 µM) | 63 µg/mL (≈ 294 µM) | – | 2 µg/mL (≈ 9.34 µM) | MIC ([7]; Proteus rettgeri A21203): 125 µg/mL (≈ 583 µM); MIC ([10]; Escherichia coli, A203411; E. coli A20341-1; overnight 37° C.; read-out: Minimum Inhibitory Concentration (M.I.C.)): 125 µg/mL (≈ 583 µM); ED50 [24]: 0.63 mg/kg; MIC ([12]; read-out: Minimum Inhibitory Concentration (M.I.C.), Staph. aureus A15097 (Meth-Res)): > 125 µg/mL; MIC ([14]; A9833, read-out: Minimum Inhibitory Concentration (M.I.C.)): > 125 µg/mL; MIC ([16]; Enterobacter cloacae A9656): 125 µg/mL (≈ 583 µM); MIC ([19]; Pseudomonas aeruginosa A21213): > 125 µg/mL; concentration at 10 min ([25]; 10 minutes after IM 40 mg/kg): 51400 ng/mL; concentration at 20 min ([25]; 20 minutes after IM 40 mg/kg): 37100 ng/mL; concentration at 0.5 h ([25]; 30 minutes after IM 40 mg/kg): 21800 ng/mL; concentration at 0.75 h ([25]; 45 minutes after IM 40 mg/kg): 9400 ng/mL; concentration at 1 h ([25]; 60 minutes after IM 40 mg/kg): 5000 ng/mL; concentration at 1.5 h ([25]; 90 minutes after IM 40 mg/kg): < 3100 ng/mL; concentration at 2 h ([25]; 120 minutes after IM 40 mg/kg): < 3100 ng/mL |
